From ChEMBL document CHEMBL1144007, “Activity of Mannich bases of 7-hydroxycoumarin against Flaviviridae” (Bioorg Med Chem, 2008) come the findings set out here.

Series [1] in a line: Cytotoxicity against human MT4 cells after 96 hrs by MTT method. It is filed as cell-based. (In general: Tetrazolium assays rely on reduction of a dye to a coloured formazan, in cell work by metabolically active cells.)
The subject of series [2] is Human immunodeficiency virus 1. The series can be described thus: Antiviral activity against HIV1. It is filed as functional, organism-based.
Series [3] has as its system Bovine viral diarrhea virus 1. The series can be described thus: Antiviral activity against BVDV NADL in MDBK cells assessed as protection from virus-induced cytopathogenicity by MTT method. It is filed as functional, organism-based. The following applies: Bovine viral diarrhea virus isolates and strains. On the technique in general: Protection from cytopathic effect is a common read-out in antiviral testing.

The next series concerns Yellow fever virus. The series can be described thus: Antiviral activity against YFV in BHK cells assessed as protection from virus-induced cytopathogenicity by MTT method. It is filed as functional, organism-based.
The next series relates to Reovirus sp. In words: Antiviral activity against Reovirus. In kind it is functional, organism-based.
The subject of series [4] is Vesicular stomatitis virus. In words: Antiviral activity against vesicular stomatitis virus. It is filed as functional, organism-based.
The test system of the next series is Vaccinia virus. In words: Antiviral activity against vaccinia virus. It is filed as functional, organism-based. The conditions noted are these: Orthopoxvirus vaccinia.
The test system of series [5] is Respiratory syncytial virus. The series can be described thus: Antiviral activity against RSV A2 in VERO76 cells assessed as reduction of plaque number by MTT method. In kind it is functional, organism-based. The following applies: human respiratory syncytial virus, A2, Vero 76.
The test system of another series is Poliovirus 1. The series can be described thus: Antiviral activity against Human poliovirus 1 Sabin. It is filed as functional.

Active and inactive are the calls of the source. No rule for the calls is given here.

`CC(=O)Oc1ccc2c(C)cc(=O)oc2c1Cc1c[nH]c2ccccc12` had a 50% cytotoxic concentration (CC50) at 96 h in series [1] of 100 µM. The result (in [2]; with Reovirus sp.; in series [4]; with Vaccinia virus; in the series with Poliovirus 1) was inactive. The EC50 in series [3] was not below 100 µM; in the series on Yellow fever virus it was more than 81 µM; in series [5] it was more than 100 µM.

In series [1], `CCN(CC)c1oc2cc(OC)ccc2c(=O)c1Cc1c(OC(C)=O)ccc2ccc(=O)oc12` gave a CC50 at 96 h of 83 µM. For the same compound, the outcome (in series [2]; in the series on Reovirus sp.; in series [4]; with Vaccinia virus; in the series on Poliovirus 1) was inactive. Moreover, the EC50 is more than 100 µM in series [3], more than 100 µM in the series with Yellow fever virus and 20 µM in [5].

Take `CCN(CC)c1oc2ccc3ccccc3c2c(=O)c1Cc1c(OC(C)=O)ccc2ccc(=O)oc12`: the CC50 at 96 h in series [1] is more than 100 µM. The outcome (in series [2]; in the series with Reovirus sp.; in series [4]; in the series with Vaccinia virus; in the series on Poliovirus 1) was inactive. In addition, the EC50 (in series [3]; with Yellow fever virus; in [5]) was more than 100 µM in each case.

Regarding `Cc1cc(=O)oc2c(CN3CCN(C/C=C/c4ccccc4)CC3)c(O)ccc12`, in series [1], it took 28 µM to reach half-maximal cytotoxicity (CC50 at 96 h). Moreover, the result (in series [2]; in the series with Reovirus sp.; in series [4]; in the series with Vaccinia virus; with Poliovirus 1) was inactive. The EC50 in [3] was more than 18 µM; in the series with Yellow fever virus, more than 53 µM; in [5], more than 100 µM.

Take `Cc1cc(=O)oc2c(CN3CCCCC3)c(O)ccc12`: the CC50 at 96 h in series [1] is more than 100 µM. Also, the outcome (in [2]; in the series on Reovirus sp.; in series [4]; with Vaccinia virus; in the series on Poliovirus 1) was inactive. In addition, the EC50 (in [3]; with Yellow fever virus; in [5]) was more than 100 µM each time.

Compound `CC(=O)c1ccc(N2CCN(Cc3c(O)ccc4c(C)cc(=O)oc34)CC2)cc1` came in with a CC50 at 96 h in series [1] of 59 µM. For the same compound, the result (in series [2]; in the series on Reovirus sp.; in [4]; with Vaccinia virus; with Poliovirus 1) was inactive. Moreover, the EC50 (in [3]; with Yellow fever virus; in series [5]) was more than 100 µM each time.

In series [1], `COc1ccc2[nH]cc(Cc3c(OC(C)=O)ccc4c(C)cc(=O)oc34)c2c1` had a CC50 at 96 h of 72 µM. The outcome (in [2]; with Reovirus sp.; in series [4]; in the series with Vaccinia virus; with Poliovirus 1) was inactive. The EC50 (in series [3]; with Yellow fever virus; in [5]) was more than 100 µM throughout.

Compound `Cc1cc(=O)oc2c(CN3CCc4ccccc4C3)c(OC(=O)c3ccccc3)ccc12` displayed a CC50 at 96 h in [1] of more than 100 µM. The result (in series [2]; with Reovirus sp.; in series [4]; with Vaccinia virus; in the series with Poliovirus 1) was inactive. The EC50 was more than 100 µM in series [3], more than 100 µM in the series with Yellow fever virus and 18 µM in [5].

For the compound `CN(CC(=O)O)Cc1c(O)ccc2ccc(=O)oc12`, the CC50 at 96 h in series [1] is more than 100 µM. The outcome (in series [2]; with Reovirus sp.; in series [4]; with Vaccinia virus; with Poliovirus 1) was inactive. Further, the concentration for a half-maximal effect (EC50) (in series [3]; with Yellow fever virus; in series [5]) was more than 100 µM throughout.

In series [1], `CCCOc1ccc2c(C)cc(=O)oc2c1CN1CCCCC1` registered a CC50 at 96 h of more than 100 µM. For the same compound, the outcome (in [2]; with Reovirus sp.; in [4]; in the series on Vaccinia virus; in the series on Poliovirus 1) was inactive. The EC50 in series [3] is 38 µM; in the series on Yellow fever virus, more than 100 µM; in [5], more than 100 µM.

`CCC(=O)Oc1ccc2ccc(=O)oc2c1Cc1c(C)[nH]c2ccccc12` returned a CC50 at 96 h in series [1] of 80 µM. For the same compound, the result (in series [2]; in the series on Reovirus sp.; in series [4]; with Vaccinia virus; with Poliovirus 1) was inactive. The EC50 is more than 51 µM in series [3], more than 100 µM in the series with Yellow fever virus and more than 100 µM in series [5].

Compound `CCCOc1ccc2c(C)cc(=O)oc2c1CN1CCOCC1` displayed a CC50 at 96 h in series [1] of more than 100 µM. Further, the result (in series [2]; with Reovirus sp.; in [4]; with Vaccinia virus; in the series with Poliovirus 1) was inactive. Besides, the EC50 (in series [3]; in the series with Yellow fever virus; in series [5]) was more than 100 µM in each case.

In [1], `Cc1[nH]c2ccccc2c1Cc1c(OC(=O)CCCC(=O)O)ccc2c(C)cc(=O)oc12` returned a CC50 at 96 h of 29 µM. Also, the outcome (in series [2]; in the series on Reovirus sp.; in series [4]; in the series with Vaccinia virus; in the series with Poliovirus 1) was inactive. Also, the figures for the EC50 (in [3]; with Yellow fever virus; in [5]) were more than 69 µM, more than 64 µM and more than 100 µM, respectively.

In series [1], `Cc1cc(=O)oc2c(CN3CCc4ccccc4C3)c(O)ccc12` displayed a CC50 at 96 h of more than 100 µM. Also, the result (in [2]; with Reovirus sp.; in series [4]; in the series on Vaccinia virus; with Poliovirus 1) was inactive. Besides, the EC50 (in series [3]; with Yellow fever virus; in series [5]) was more than 100 µM each time.

The compound `CC(=O)Oc1ccc2ccc(=O)oc2c1Cc1c(N2CCCCC2)oc2ccc3ccccc3c2c1=O` yielded a CC50 at 96 h in [1] of more than 100 µM. For the same compound, the result (in series [2]; with Reovirus sp.; in series [4]; in the series with Vaccinia virus; in the series with Poliovirus 1) was inactive. The results for the EC50 (in series [3]; with Yellow fever virus; in series [5]) were 59 µM, 77 µM and 40 µM, respectively.

On to `CCC(=O)Oc1ccc2c(C)cc(=O)oc2c1Cc1c(-c2ccccc2)[nH]c2ccccc12`, for which the CC50 at 96 h in series [1] came out at 38 µM. The outcome (in series [2]; with Reovirus sp.; in [4]; in the series with Vaccinia virus; with Poliovirus 1) was inactive. Besides, the EC50 was 7 µM in series [3], more than 27 µM in the series with Yellow fever virus and more than 100 µM in [5].

Compound `O=c1ccc2ccc(O)c(CN3CCc4ccccc4C3)c2o1` displayed a CC50 at 96 h in [1] of more than 100 µM. Further, the outcome (in [2]; with Reovirus sp.; in series [4]; in the series on Vaccinia virus; with Poliovirus 1) was inactive. The EC50 (in series [3]; in the series on Yellow fever virus; in [5]) was more than 100 µM each time.

For `CCCOc1ccc2c(C)cc(=O)oc2c1CN1CCc2ccccc2C1`, the CC50 at 96 h in series [1] is more than 100 µM. For the same compound, the outcome (in series [2]; in the series on Reovirus sp.; in series [4]; in the series with Vaccinia virus; with Poliovirus 1) was inactive. Besides, the EC50 in series [3] is 20 µM; in the series with Yellow fever virus, more than 100 µM; in series [5], more than 93 µM.

The compound `CN1CCN(Cc2c(O)ccc3ccc(=O)oc23)CC1` returned a CC50 at 96 h in series [1] of more than 100 µM. Further, the outcome (in series [2]; in the series with Reovirus sp.; in [4]; with Vaccinia virus; in the series on Poliovirus 1) was inactive. The EC50 (in series [3]; in the series with Yellow fever virus; in series [5]) was more than 100 µM each time.

The compound `CCC(=O)Oc1[nH]c2ccccc2c1Cc1c(OC(C)=O)ccc2ccc(=O)oc12` had a CC50 at 96 h in series [1] of 67 µM. Besides, the result (in series [2]; with Reovirus sp.; in series [4]; with Vaccinia virus; in the series with Poliovirus 1) was inactive. Moreover, the EC50 in [3] was more than 64 µM; in the series with Yellow fever virus, more than 72 µM; in [5] it was 60 µM.

Regarding `CCCOc1ccc2ccc(=O)oc2c1CN1CCc2ccccc2C1`, the midpoint of cytotoxicity in [1], the CC50 at 96 h, lay at 11 µM. Moreover, the result (in series [2]; in the series on Reovirus sp.; in series [4]; with Vaccinia virus; with Poliovirus 1) was inactive. In addition, the values for the EC50 (in the series with Yellow fever virus; in [5]) were more than 19 µM and more than 25 µM, respectively.

The term CC50 denotes the concentration giving 50% cytotoxicity. The low end stands for greater toxicity to the cells, the high end for lower toxicity to the cells. The EC50 is the concentration giving half of the maximal effect.
